Measurements as given in patent US9790201B2, “Piperidine and azepine derivatives as prokineticin receptor modulators” (TAKEDA PHARMACEUTICAL COMPANY LIMITED, priority 2013, dated 2017).

Target: human PKR1 receptors (Homo sapiens (Human), UniProt Q8TCW9)
Test: PKR1 antagonist assay: block of PK1-mediated intracellular calcium release (FLIPR Tetra)
Assay type: cell-based
Details: RBL2H3 cells expressing human PKR1; stimulation with PK1 at EC80; calcium fluorescence
Outline: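 RBL2H3 cells expressing human PKR1, loaded 1 h at 37 °C with Calcium 5 dye plus 1 mM probenecid in HBSS/25 mM HEPES/0.1% BSA, pH 7.4. Compounds (0.32 nM–10 µM final) preincubated 10 min, then PK1 added at EC80; fluorescence read at 525 nm (excitation 485 nm).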

human PKR1 receptors, sequence (Q8TCW9 whole entry): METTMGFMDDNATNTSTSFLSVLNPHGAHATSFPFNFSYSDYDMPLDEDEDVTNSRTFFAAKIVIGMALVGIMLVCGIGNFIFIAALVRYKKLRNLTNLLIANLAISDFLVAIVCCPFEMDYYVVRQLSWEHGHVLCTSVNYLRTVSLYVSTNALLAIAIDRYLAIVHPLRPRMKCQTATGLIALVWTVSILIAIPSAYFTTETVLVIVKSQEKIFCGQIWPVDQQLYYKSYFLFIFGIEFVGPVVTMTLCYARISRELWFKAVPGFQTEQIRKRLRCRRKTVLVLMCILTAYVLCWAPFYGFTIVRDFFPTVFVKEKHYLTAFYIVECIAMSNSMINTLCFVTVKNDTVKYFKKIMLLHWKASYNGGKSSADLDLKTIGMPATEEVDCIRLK

SMILES	IC50
COc1cc(C(=O)N2CCCC(c3ccc(Cl)cc3C)C2)cnn1 (stereo not drawn) [Example 74, 5-{[3-(4-Chloro-2-methylphenyl)piperidin-1-yl]carbonyl}-3-methoxypyridazine]	350 nM
CNc1cc(C(=O)N2CCCC(c3ccccc3C(F)(F)F)C2)ccn1 (stereo not drawn) [Example 54, N-Methyl-4-({3-[2-(trifluoromethyl)phenyl]piperidin-1-yl}carbonyl)pyridin-2-amine]	230 nM
Cc1cc(C(=O)N2CCCC(c3ccc(Cl)cc3C)C2)ccn1 (stereo not drawn) [Example 5, 4-{[3-(4-Chloro-2-methylphenyl)piperidin-1-yl]carbonyl}-2-methylpyridine]	450 nM

Results, then the molecule that gave them:

IC50	SMILES
220 nM	CN(C)c1cc(C(=O)N2CCCC(c3ccccc3C(F)(F)F)C2)ccn1 (stereo not drawn) [Example 45, N,N-Dimethyl-4-({3-[2-(trifluoromethyl)phenyl]piperidin-1-yl}carbonyl)pyridin-2-amine]
190 nM	Cc1ccccc1C1CCCN(C(=O)c2ccnc(N(C)C)c2)C1 (stereo not drawn) [Example 14, N,N-Dimethyl-4-{[3-(2-methylphenyl)piperidin-1-yl]carbonyl}pyridin-2-amine]
2970 nM	CN(C)c1cc(C(=O)N2CCCCC(c3ccccc3)C2)ccn1 (stereo not drawn) [Example 107, N,N-Dimethyl-4-[(3-phenylazepan-1-yl)carbonyl]pyridin-2-amine]
